Measured values taken from PMC7659001, “The auxin-inducible degron 2 technology provides sharp degradation control in yeast, mammalian cells, and mice” (Nature Communications, 2020).
Values belong to the molecule of their own block, whether it stands above or below them.

What was measured:
Type in all cases: cell-based
OsTIR1 [1] = biological target: T1, OsTIR1 (Oryza sativa subsp. japonica, UniProt P93830+Q7XVM8, Q7XVM8:F74G); test: mAID-EGFP-NLS reporter degradation dose response in HCT116 cells (DC50)
T1 construct: gene Os04g0395600; with mAID degron (Arabidopsis IAA17); SCF (Skp1-Cul1)

OsTIR1 [2] = biological target: T2, OsTIR1 (Oryza sativa subsp. japonica, UniProt P93830+Q7XVM8); test: as above
T2 construct: gene Os04g0395600; with mAID degron (Arabidopsis IAA17); SCF (Skp1-Cul1)

OsTIR1 [3] = biological target: T3, OsTIR1 (Oryza sativa, UniProt Q7XVM8); test: OsTIR1(WT) level in HCT116 cells raised by the inhibitor (suppressed autodegradation)
T3 construct: gene Os04g0395600
T3 sequence (Q7XVM8 1-575): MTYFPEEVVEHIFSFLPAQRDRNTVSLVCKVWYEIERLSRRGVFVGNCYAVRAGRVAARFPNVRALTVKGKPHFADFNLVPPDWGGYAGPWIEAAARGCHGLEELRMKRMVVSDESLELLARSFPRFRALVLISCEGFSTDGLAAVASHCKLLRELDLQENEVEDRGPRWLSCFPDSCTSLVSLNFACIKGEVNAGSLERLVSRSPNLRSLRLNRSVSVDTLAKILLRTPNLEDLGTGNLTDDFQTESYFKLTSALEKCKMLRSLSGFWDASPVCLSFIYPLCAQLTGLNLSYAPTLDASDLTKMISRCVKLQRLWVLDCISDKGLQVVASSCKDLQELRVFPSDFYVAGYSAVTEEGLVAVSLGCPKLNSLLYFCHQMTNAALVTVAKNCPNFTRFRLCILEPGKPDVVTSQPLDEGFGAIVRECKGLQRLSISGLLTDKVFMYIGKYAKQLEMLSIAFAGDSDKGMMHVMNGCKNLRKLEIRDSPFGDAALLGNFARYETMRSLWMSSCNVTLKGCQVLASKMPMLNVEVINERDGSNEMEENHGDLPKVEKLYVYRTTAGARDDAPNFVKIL

T1 sequence (Q7XVM8 whole entry F74G): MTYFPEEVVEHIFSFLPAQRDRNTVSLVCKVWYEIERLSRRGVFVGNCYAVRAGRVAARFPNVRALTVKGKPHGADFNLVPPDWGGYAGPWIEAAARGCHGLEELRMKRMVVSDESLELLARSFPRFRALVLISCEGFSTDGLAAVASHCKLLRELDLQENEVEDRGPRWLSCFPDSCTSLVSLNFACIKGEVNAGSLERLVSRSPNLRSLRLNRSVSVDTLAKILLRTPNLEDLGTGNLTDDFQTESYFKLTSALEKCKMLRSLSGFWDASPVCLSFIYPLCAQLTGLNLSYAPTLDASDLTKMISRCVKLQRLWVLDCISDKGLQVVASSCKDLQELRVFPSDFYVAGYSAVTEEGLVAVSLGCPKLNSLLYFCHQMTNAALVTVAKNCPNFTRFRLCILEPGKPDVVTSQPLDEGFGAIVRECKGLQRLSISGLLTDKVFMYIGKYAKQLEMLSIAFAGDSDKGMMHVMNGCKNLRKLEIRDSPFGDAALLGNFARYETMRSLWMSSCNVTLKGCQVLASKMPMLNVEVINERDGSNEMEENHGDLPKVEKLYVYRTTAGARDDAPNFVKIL
T1 sequence (P93830 65-132 limits assumed): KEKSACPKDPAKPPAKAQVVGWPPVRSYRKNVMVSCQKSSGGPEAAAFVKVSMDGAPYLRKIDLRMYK
T2 sequence (P93830 whole entry, one chain of several): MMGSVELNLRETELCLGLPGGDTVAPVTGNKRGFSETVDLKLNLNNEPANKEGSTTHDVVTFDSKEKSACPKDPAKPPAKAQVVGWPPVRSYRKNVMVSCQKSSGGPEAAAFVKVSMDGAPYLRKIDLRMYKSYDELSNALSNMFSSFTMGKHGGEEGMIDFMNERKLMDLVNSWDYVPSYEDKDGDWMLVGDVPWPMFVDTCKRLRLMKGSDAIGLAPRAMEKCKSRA

Compound: O=C(O)Cc1c[nH]c2ccc(-c3ccccc3)cc12 [5-Ph-IAA, 5-phenyl-indole-3-acetic acid]
- DC50 (OsTIR1 [1]): 0.45 ± 0.01 nM

- DC50 (OsTIR1 [2]): 300 ± 30 nM
Compound: O=C(O)Cc1c[nH]c2ccccc12 [IAA, indole-3-acetic acid]

Compound: Cc1ccc(C(=O)CC(C(=O)O)c2c[nH]c3ccccc23)c(C)c1 (stereo not drawn) [auxinole]
- OsTIR1(WT) level in HCT116 cells raised by the inhibitor (suppressed autodegrada) (OsTIR1 [3]): The expression level of OsTIR1(WT) was enhanced by the addition of an OsTIR1 inhibitor auxinole
